Data as given in patent US20100143980A1, “SYNTHESIS OF NOVEL XYLOSIDES AND POTENTIAL USES THEREOF” (priority 2007, published 2010).
“Also recorded” adds a separate entry of the source.

System: CHO pgsA-745
Experiment: Priming of glycosaminoglycan synthesis by xylosides, 35S-sulfate incorporation into purified HS/CS
Type: cell-based
Settings: 1 uM
Description: To determine whether the xylosides are able to prime the synthesis of glycosaminoglycans in cells in vitro experiments were performed using CHO pgsA-745. The cells were treated with appropriate primers in the presence of 35S—Na2SO4, glycosaminoglycans were purified and analyzed as described below. 1×10^4 cells were plated per well in Ham's/F12 complete growth medium in a 24-well plate. The cells were incubated at 37° C. in a humidified incubator for 24 hours to a confluency of about 50%. The cells were washed with sterile PBS and replaced with 450 μL ham's/F12 containing 10% dialyzed FBS. Solutions containing a specific primer at 100× the final concentration were prepared. 5 μL of appropriate 100× primer were added to various wells to yield a final concentration of 100 μM. 50 μCi of 35S—Na2SO4 was also added to each well as tracer. The 24-well plates were placed back in the 37° C. incubator for 24 hours before the addition of 100 μL 6× pronase solution followed by incubation at 37° C. overnight.
(§1) To determine whether the xylosides are able to prime the synthesis of glycosaminoglycans in cells, in vitro experiments were performed using CHO pgsA-745. The cells were treated with appropriate primers in the presence of 35S—Na2SO4, glycosaminoglycans were purified and analyzed as described below. 1×10^4 cells were plated per well in Ham's/F12 complete growth medium in a 24-well plate. The cells were incubated at 37° C. in a humidified incubator for 24 hours to a confluency of about 50%. The cells were washed with sterile PBS and replaced with 450 uL ham's/F12 containing 10% dialyzed FBS. Serial dilutions of the primers at 100× the final concentration were prepared. 5 uL of appropriate 100× primer were added to various wells to yield a final concentration of 1, 10, 100 and 1000 uM respectively. 50 uCi of 35S—Na2SO4 was also added to each well as tracer. The 24-well plates were placed back in the 37° C. incubator for 24 hours before the addition of 100 uL 6× pronase solution followed by incubation at 37° C. overnight.
The entire contents of the wells were transferred to a microcentrifuge tube and subjected to centrifugation at 16,000×g for 5 minutes. The supernatant was transferred to a fresh tube and half-a-volume of 0.016% Triton X-100 was added. The diluted supernant was loaded on 0.2 mL DEAE-sepharose column pre-equilibrated with 2 mL of 20 mM NaOAc buffer pH 6.0 containing 0.1 M NaCl and 0.01% Triton X-100 and the column was washed with 4 mL of buffer described above. The bound HS/CS was eluted using 1.2 mL elution buffer, 20 mM NaOAc, pH 6.0, containing 1 M NaCl. The extent of priming by the various xyloside primers was evaluated by quantifying the 35S-radioactivity incorporated in to the purified HS/CS elute by liquid scintillation. 50 uL of the various elutes were added to 5 mL of scintillation cocktail and the vials were counted in a scintillation counter in triplicate. The amount of radioactivity corresponds to the total glycosaminoglycan synthesis due to the primer.
as §1, with “a) To” for “To”, “cells” for “cells,”, “^35S—Na2SO4,” for “35S—Na2SO4,”, “37 C” for “37° C.”, “^35S—Na2SO4” for “35S—Na2SO4”, “The 24-well plates were placed back in the 37° C. incubator for 24 hours before the addition of 100 uL 6× pronase solution followed by incubation at 37° C. overnight.” left out

| Compound | priming ability relative to the next highest primer at 1 uM |
| --- | --- |
| O=S(=O)(c1ccccc1)[C@@H]1OC[C@@H](O)[C@H](O)[C@H]1O [sulfone-phenyl xyloside] | four times that of the next highest priming activity seen at this concentration |

Same assay, conditions: 1 uM primer

| Compound | GAG priming activity at 1 uM (in words) |
| --- | --- |
| O=S(=O)(c1ccccc1)[C@@H]1OC[C@@H](O)[C@H](O)[C@H]1O [sulfone-phenyl xyloside] | better activity at concentration as low as 1 uM; also recorded: highest activity than any of the primers |

Same assay, conditions: 10 uM primer

| Compound | GAG priming activity at 10 uM (in words) |
| --- | --- |
| OC1COC(n2cc(COc3ccc4c(c3)CCCC4)nn2)C(O)C1O (stereo not shown) [tetrahydronaphthyl] | significantly higher priming activity than other xylosides |
| O[C@@H]1[C@@H](O)[C@H](Sc2ccccc2)OC[C@H]1O [thiophenyl, beta-D-thiophenyl xyloside, reference compound] | significantly higher priming activity than other xylosides |
| O=S(=O)(c1ccccc1)[C@@H]1OC[C@@H](O)[C@H](O)[C@H]1O [sulfone-phenyl xyloside] | significantly higher priming activity than other xylosides |

Same assay, conditions: 100 uM

| Compound | priming activity relative to the thio-phenyl and thio-pyridyl primers |
| --- | --- |
| O=S(=O)(c1ccccc1)[C@@H]1OC[C@@H](O)[C@H](O)[C@H]1O [sulfone-phenyl xyloside] | about 60% |

Same assay, conditions: CHO pgsA-745 cells; concentration not given

| Compound | GAG priming ability (in words, relative to the comparator named) |
| --- | --- |
| OC1COC(n2cc(COc3cccnc3)nn2)C(O)C1O (stereo not shown) [compound 6] | prime GAGs albeit in lesser quantities than their respective β-anomers |
| OC1COC(n2cc(COCc3ccc(F)cc3)nn2)C(O)C1O (stereo not shown) [compound 24] | down regulates the priming ability |
| OCc1cccc(COCc2cn(C3OCC(O)C(O)C3O)nn2)c1 (stereo not shown) [compound 25] | down regulates the priming ability |
| COc1ccc(-c2cn(C3OCC(O)C(O)C3O)nn2)cc1 (stereo not shown) [compound 33] | primed one-half the amount of GAG chains compared to the unsubstituted xyloside 29 |
| COc1ccc(OCc2cn(C3OCC(O)C(O)C3O)nn2)cc1 (stereo not shown) [compound 9] | marginal effect on the priming ability |
| OC1COC(n2cc(COc3ccc4cc(Br)ccc4c3)nn2)C(O)C1O (stereo not shown) [compound 19] | completely abolished the priming activity |
| OC1COC(n2cc(-c3ccccc3)nn2)C(O)C1O (stereo not shown) [compound 29] | decreased the priming ability by two fold |
| OC1COC(n2ccnn2)C(O)C1O (stereo not shown) [compound 1] | primed slightly better than the well known β-O-naphthyl xyloside |
| OC1COC(n2cc(COc3cc4ccccc4c4ccccc34)nn2)C(O)C1O (stereo not shown) [compound 21] | primed less GAG chains than the less hydrophobic xyloside (Table 1A: compound 18) did |
| OC1COC(n2cc(COCc3ccccc3)nn2)C(O)C1O (stereo not shown) [compound 23] | prime GAGs albeit in lesser quantities than their respective β-anomers |
| OC1COC(n2cc(COc3ccc(-c4ccc(Br)cc4)cc3)nn2)C(O)C1O (stereo not shown) [compound 17] | decreased |
| OC1COC(n2ccnn2)C(O)C1O (stereo not shown) [compound 2] | prime GAGs albeit in lesser quantities than their respective β-anomers |
| OC1COC(n2cc(COc3ccc4c(c3)CCCC4)nn2)C(O)C1O (stereo not shown) [compound 20] | did not significantly influence priming activity |
| OC1COC(n2cc(COc3ccccc3)nn2)C(O)C1O (stereo not shown) [compound 8] | prime GAGs albeit in lesser quantities than their respective β-anomers |
| COc1ccccc1-c1cn(C2OCC(O)C(O)C2O)nn1 (stereo not shown) [compound 32] | primed nearly two times the amount of GAG chains compared to the unsubstituted xyloside 29 |
| COc1ccc(OCc2cn(C3OCC(O)C(O)C3O)nn2)cc1 (stereo not shown) [compound 10] | prime GAGs albeit in lesser quantities than their respective β-anomers |
| COc1cc(OC)cc(-c2cn(C3OCC(O)C(O)C3O)nn2)c1 (stereo not shown) [compound 34] | showed decrease priming compared to the unsubstituted xyloside 29 |

Same assay, conditions: fold less efficient than compound 7

| Compound | priming efficiency compared to phenyl substituted xyloside compound 7 [times] |
| --- | --- |
| OC1COC(n2cc(COc3cccnc3)nn2)C(O)C1O (stereo not shown) [compound 5] | 10 |

Same assay, conditions: relative to unsubstituted phenyl xyloside

| Compound | loss of priming activity by para nitro substitution |
| --- | --- |
| O=[N+]([O-])c1ccc(OCc2cn(C3OCC(O)C(O)C3O)nn2)cc1 (stereo not shown) [compound 15] | approximately 30% |

System: CHO pgsA-745
Experiment: Composition of HS and CS in the primed glycosaminoglycans (Chondroitinase AC digestion)
Type: cell-based
Settings: share of HS in total GAG
Description: (§2) To determine the composition of the HS and CS in the glycosaminoglycans synthesized, a small aliquot of the elute (300 uL) was diluted 10-fold and digested using Chondroitinase AC. The sample was subjected to precipitation to remove the disaccharide in the presence of cold chondroitin sulfate A and scintillation counted. This gives the amount of HS primed on the xylosides and the difference in the radioactivity corresponds to the amount of chondroitin sulfate in the purified glycoaminoglycan elute.
as §2, with “b) To” for “To”

| Compound | composition of HS in primed glycosaminoglycans [%] | composition of HS in primed glycosaminoglycans (in words) |
| --- | --- | --- |
| C-(2-naphthol)-xyloside | −72 |  |
| OC1COC(n2cc(COc3ccc(F)cc3)nn2)C(O)C1O (stereo not shown) [fluoro-substituted derivative] |  | Half |
| OC1COC(n2cc(COc3ccccc3)nn2)C(O)C1O (stereo not shown) [triazole-O-phenyl] |  | Half |
